From patent US12415839B2, “IgE epitope-like peptides and uses thereof” (Univerza v Ljubljani, priority 2018, dated 2025)

Each substance was assayed on IgE of peanut allergic patients (assay: Immunodot assay with sera of peanut allergic patients). Settings: peptide-pIII fusion proteins spotted on nitrocellulose, patient sera diluted 1:10, FIG. 3.
Assay type: binding, human
Protocol: Three selected IgE epitope-like peptides (ELP 2, ELP 5, ELP 6) were extracted as recombinant fusions with bacteriophage minor coat protein pIII from the periplasm of host bacteria with osmotic shock. Two target-unrelated control peptides also fused to protein pIII (binders to streptavidin and human leptin) were extracted in the same way and served as negative controls (C1, C2). Briefly, E. coli host bacteria were infected with individual phage clones and grown for 2 hours at 37° C. with agitation. Bacteria pellets were spun down at 5000×g for 10 min and resuspended in 1 ml of an ice-cold solution consisting of 20% sucrose, 200 mM Tris-HCl pH 8.0 and 1 mM EDTA supplemented with protease inhibitor cocktail (EZBlock™, BioVision, San Francisco, USA) at a dilution of 1:200. After 1 h incubation on ice with occasional stirring supernatants were harvested by centrifugation at 12000×g for 20 minutes at 4° C. Resulting periplasmic extracts containing […] fusion proteins were concentrated (4-5 fold) and sucrose buffer exchanged for PBS by ultrafiltration with 10 kDa cut-off membrane (Microsep Advance Centrifugal Device, Pall Corporation, New York, USA). For immunoprecipitation of each selected peptide, 20 μg of affinity purified rabbit IgG against Ara h 2 (INDOOR Biotechnologies, Charlottesville, Virginia, USA) were covalently coupled to 1 mg of Dynabeads M-280 Tosylactivated™ (Thermo Fisher Scientific) according to manufacturer's protocol. Control peptides were immunoprecipitated in the same way using 10 μg of anti-human leptin antibody (R and D Systems Cat #MAB398 RRID:AB_2136056) coupled to 1 mg of Dynabeads M-280 Tosylactivated™ in the case of peptide with the affinity toward human leptin and 0.5 mg of streptavidin-coupled beads (Dynabeads™ MyOne™ Streptavidin T1, Thermofisher Scientific) in the case of peptide with the affinity towards streptavidin. […]

Row | Substance | binding to IgE of peanut allergic patients
1 | DHPRFNRDNDVA (IgE epitope-like peptide) [ELP 2] | bind to patients' IgE
2 | DHPRFST (IgE epitope-like peptide) [ELP 6] | bind to patients' IgE
3 | DHPRYGP (IgE epitope-like peptide) [ELP 5] | bind to patients' IgE
